Source: patent US11667602B2, “Compounds and their use” (AstraZeneca AB, priority 2020, dated 2023)

Molecular target: T1, human RXFP1 (Homo sapiens, UniProt Q9HBX9)
T1 sequence (Q9HBX9 1-757): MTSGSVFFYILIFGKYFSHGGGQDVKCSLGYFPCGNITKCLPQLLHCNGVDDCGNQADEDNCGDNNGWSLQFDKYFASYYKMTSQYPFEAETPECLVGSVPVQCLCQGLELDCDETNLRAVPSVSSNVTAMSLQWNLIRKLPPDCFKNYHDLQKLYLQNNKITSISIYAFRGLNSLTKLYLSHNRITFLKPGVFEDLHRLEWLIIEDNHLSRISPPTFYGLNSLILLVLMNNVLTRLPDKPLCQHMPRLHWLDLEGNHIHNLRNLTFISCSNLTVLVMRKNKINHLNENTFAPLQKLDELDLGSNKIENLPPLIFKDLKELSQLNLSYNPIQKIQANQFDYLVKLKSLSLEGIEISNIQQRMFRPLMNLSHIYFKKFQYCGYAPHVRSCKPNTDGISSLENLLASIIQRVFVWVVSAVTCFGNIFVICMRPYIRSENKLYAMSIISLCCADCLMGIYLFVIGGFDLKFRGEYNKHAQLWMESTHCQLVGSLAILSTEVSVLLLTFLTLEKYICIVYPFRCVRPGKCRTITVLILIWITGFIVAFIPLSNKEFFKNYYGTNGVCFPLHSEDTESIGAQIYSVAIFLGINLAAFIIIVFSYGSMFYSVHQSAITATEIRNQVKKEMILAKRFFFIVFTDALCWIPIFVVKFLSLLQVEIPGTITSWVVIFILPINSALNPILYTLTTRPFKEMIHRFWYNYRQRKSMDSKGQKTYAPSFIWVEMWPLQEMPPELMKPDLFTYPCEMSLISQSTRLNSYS
Assay: RXFP1 Hu cAMP (Test A)
Format: cell-based
Design: expressed in transfected cells; host or cells: Jump-In T-REx CHO-K1 cells (ThermoFisher), induced with 10 ng/ml doxycycline for 24 h
Conditions: RXFP1 Hu cAMP; for EC50: read-out: Test A EC50
Summary of the method: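 Doxycycline-induced (10 ng/ml, 24 h) CHO-K1 cells stably expressing human RXFP1; cAMP read by competitive HTRF after 2 h at room temperature, with 0.5 mM IBMX final.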

Molecule	EC50 [nM]	Test A Sinf [%]
COc1cc(F)c(O[C@H]2CC[C@@](C)(C(=O)O)CC2)cc1C(=O)NC1C(C(=O)Nc2cccc(S(=O)(=O)C(F)(F)F)c2)CC(O)C1O (single isomer, unassigned) [Example 562, (1R,4s)-4-(5-(((1S*,2R*,3S*,5S*)-2,3-Dihydroxy-5-((3-((trifluoromethyl)sulfonyl)phenyl)carbamoyl)cyclopentyl)carbamoyl)-2-fluoro-4-methoxyphenoxy)-1-methylcyclohexane-1-carboxylic acid]	> 40000	
(1R,4s)-4-(2-fluoro-4-methoxy-5-(((3S*,4S*)-3-((3-((trifluoromethyl)sulfonyl)phenyl)carbamoyl)tetrahydro-2H-pyran-4-yl)carbamoyl)phenoxy)-1-methylcyclohexane-1-carboxylic acid [Example 519]		101
COc1cc(C#N)c(O[C@H]2CC[C@@](C)(C(=O)O)CC2)cc1C(=O)Nc1cc(C)ccc1C(=O)NCc1cccc(F)c1 [Example 166, (1s,4s)-4-(2-Cyano-5-((2-((3-fluorobenzyl)carbamoyl)-5-methylphenyl)carbamoyl)-4-methoxyphenoxy)-1-methylcyclohexane-1-carboxylic acid]	580	137
COc1cc(F)c(-c2nc(C(=O)O)co2)cc1C(=O)N[C@H]1[C@@H](C(=O)Nc2cccc(S(=O)(=O)C(F)(F)F)c2)[C@@H]2C=C[C@H]1C2 (racemic) [Example 275, rac-2-(2-Fluoro-4-methoxy-5-(((1R,2R,3S,4S)-3-((3-((trifluoromethyl)sulfonyl)phenyl)carbamoyl)bicyclo[2.2.1]hept-5-en-2-yl)carbamoyl)phenyl)oxazole-4-carboxylic acid]	11000	83
COc1cc(F)c(O[C@H]2CC[C@@](C)(C(=O)O)CC2)cc1C(=O)N[C@H]1[C@@H](C(=O)NCC2(C)CCC2)[C@@H]2CC[C@H]1O2 (racemic) [Example 358]	5100	99
COc1cc(F)c(O[C@H]2CC[C@@](C)(C(=O)O)CC2)cc1C(=O)N[C@H]1[C@H]2CC[C@H](CC2)[C@H]1C(=O)NCC1(C)CCC1 (racemic) [Example 470, (1R,4s)-4-(2-Fluoro-4-methoxy-5-(((2SR,3RS)-3-(((1-methylcyclobutyl)methyl)carbamoyl)bicyclo[2.2.2]octan-2-yl)carbamoyl)phenoxy)-1-methylcyclohexane-1-carboxylic acid]	17	102
COc1cc(F)c(O[C@H]2CC[C@@H](NS(C)(=O)=O)CC2)cc1C(=O)N[C@@H]1[C@H]2CC[C@H](C2)[C@@H]1C(=O)Nc1cccc(S(=O)(=O)C(F)(F)F)c1 [Example 459, (1R,2S,3R,4S)-3-(4-Fluoro-2-methoxy-5-(((1s,4S)-4-(methylsulfonamido)cyclohexyl)oxy)benzamido)-N-(3-((trifluoromethyl)sulfonyl)phenyl)bicyclo[2.2.1]heptane-2-carboxamide]	320	91
COc1cc(F)c(O[C@H]2CC[C@@H](C(N)=O)CC2)cc1C(=O)N[C@@H]1[C@@H]2CC[C@@H](C2)[C@@H]1C(=O)Nc1cccc(S(F)(F)(F)(F)F)c1 [Example 511, (1S,2S,3R,4R)-3-(5-(((1s,4S)-4-Carbamoylcyclohexyl)oxy)-4-fluoro-2-methoxybenzamido)-N-(3-(pentafluoro-A6-sulfaneyl)phenyl)bicyclo[2.2.1]heptane-2-carboxamide]	37	117
COc1cc(F)c(-c2ccc(C(=O)O)c(F)c2)cc1C(=O)N[C@H]1[C@@H](C(=O)Nc2cccc(S(=O)(=O)C(F)(F)F)c2)[C@@H]2C=C[C@H]1C2 (racemic) [Example 232]		108
COC(=O)[C@]1(C(=O)O)CC[C@@H](Oc2cc(C(=O)N[C@@H]3[C@H]4CC[C@H](C4)[C@@H]3C(=O)NCC3(C)CCC3)c(OC(C)C)cc2F)CC1 [Example 485, (1R,4r)-4-(2-Fluoro-4-isopropoxy-5-(((1S,2R,3S,4R)-3-(((1-methylcyclobutyl)methyl)carbamoyl)bicyclo[2.2.1]heptan-2-yl)carbamoyl)phenoxy)-1-(methoxycarbonyl)cyclohexane-1-carboxylic acid]		95
COc1cc(C#N)c(O[C@H]2CC[C@@](C)(C(=O)O)CC2)cc1C(=O)Nc1cc(Cl)ccc1C(=O)NCC(C)(C)F [Example 164]	130	142
COc1cc(F)c(OC2CCC(C)(C(=O)O)CC2)cc1C(=O)NC1COCC1C(=O)NCC1(C)CCC1 [Example 576, (1R,4s)-4-(2-Fluoro-4-methoxy-5-(((3S*,4R*)-4-(((1-methylcyclobutyl)methyl)carbamoyl)tetrahydrofuran-3-yl)carbamoyl)phenoxy)-1-methylcyclohexane-1-carboxylic acid]		118
COc1cc(F)c(OC2CCC(C)(C(=O)O)CC2)cc1C(=O)NC1COCC1C(=O)Nc1ccc(F)c(S(F)(F)(F)(F)F)c1 [Example 564, (1R,4s)-4-(2-Fluoro-5-(((3S*,4R*)-4-((4-fluoro-3-(pentafluoro-λ6-sulfaneyl)phenyl)carbamoyl)tetrahydrofuran-3-yl)carbamoyl)-4-methoxyphenoxy)-1-methylcyclohexane-1-carboxylic acid]	> 40000	
COc1cc(F)c(-c2ccc(C(=O)O)cc2)cc1C(=O)N[C@@H]1CCC[C@@H]1C(=O)Nc1cccc(S(=O)(=O)C(F)(F)F)c1 (racemic) [Example 299]		81
CCOc1cc(F)c(O[C@H]2CC[C@@](C)(C(=O)O)CC2)cc1C(=O)N[C@@H]1[C@H]2CC[C@H](C2)[C@@H]1C(=O)NC12CC(F)(C1)C2 [Example 384]	130	108
COc1cc(F)c(-c2nnc(CCC(=O)O)s2)cc1C(=O)N[C@H]1C(C(=O)Nc2cccc(S(=O)(=O)C(F)(F)F)c2)[C@@H]2CC[C@H]1C2 (stereo partly drawn) [Example 322, 3-(5-(2-Fluoro-4-methoxy-5-(((1S,2R,3S,4R)-3-((3-((trifluoromethyl)sulfonyl)phenyl)carbamoyl)bicyclo[2.2.1]heptan-2-yl)carbamoyl)phenyl)-1,3-,4-thiadiazol-2-yl)propanoic acid]	800	107
COc1cc(F)c(O[C@H]2CC[C@@](C)(C(=O)O)CC2)cc1C(=O)N[C@H]1[C@@H](C(=O)NCC2(C)CCC2)[C@H]2C=C[C@@H]1CC2 (racemic) [Example 471, (1R,4s)-4-(2-Fluoro-4-methoxy-5-(((1RS,2SR,3RS,4SR)-3-(((1-methylcyclobutyl)methyl)carbamoyl)bicyclo[2.2.2]oct-5-en-2-yl)carbamoyl)phenoxy)-1-methylcyclohexane-1-carboxylic acid]	91	95
COc1cc(F)c(O[C@H]2CC[C@@](C)(C(=O)O)CC2)cc1C(=O)N[C@@H]1[C@H]2CC[C@H](C2)[C@@H]1C(=O)NCC(F)(F)C(F)(F)F [Example 618]	100	93
COc1cc(F)c(-c2cccc(C(=O)O)c2F)cc1C(=O)N[C@H]1[C@@H](C(=O)Nc2cccc(S(=O)(=O)C(F)(F)F)c2)[C@@H]2C=C[C@H]1C2 (racemic) [Example 233]		105
COc1cc(F)c(-c2ccc(C(=O)O)cc2)cc1C(=O)N[C@H]1[C@@H](C(=O)Nc2ccc(F)c(C(F)(F)F)c2)[C@@H]2C=C[C@H]1C2 (racemic) [Example 307, rac-2′-Fluoro-5′-(((1R,2R,3S,4S)-3-((4-fluoro-3-(trifluoromethyl)phenyl)carbamoyl)bicyclo[2.2.1]hept-5-en-2-yl)carbamoyl)-4′-methoxy-[1,1′-biphenyl]-4-carboxylic acid]	180	90
COc1cc(F)c(O[C@H]2CC[C@@](C)(C(=O)O)CC2)cc1C(=O)N[C@@H]1[C@H]2CC[C@H](C2)[C@@H]1C(=O)NC12CC(C1)C2 [Example 600]	140	104
COc1cc(C#N)c(O[C@H]2CC[C@@](C)(C(=O)O)CC2)cc1C(=O)NC1C2CCC(CC2)C1C(=O)NCC1(C)CCC1 (single isomer, unassigned) [Example 538, (1R,4s)-4-(2-Cyano-4-methoxy-5-(((2S*,3R*)-3-(((1-methylcyclobutyl)methyl)carbamoyl)bicyclo[2.2.2]octan-2-yl)carbamoyl)phenoxy)-1-methylcyclohexane-1-carboxylic acid]	11000	100
